Source: patent US6825200B1, “Substituted dipeptides having nos inhibiting activity” (Fujisawa Pharmaceutical Co., Ltd., priority 1999, dated 2004)

Tested on: production of nitric oxide in murine macrophage cell line RAW264.7
Assay: Assay for inhibitory activity on the production of nitric oxide (Griess reagent, LPS/INF γ-activated RAW264.7 cells)
Assay type: cell-based
Settings: Mus musculus; test compound 10^−6 M; RAW264.7 cells activated with LPS (1 μg/ml) and INF γ (3 u/ml) for 18-24 hours; NO2^− by Griess reagent
Experimental: Test 1: Assay for Inhibitory Activity on the Production of Nitric Oxide The murine macrophage cell line RAW264.7 (American Type Culture Collection, No. TIB71) was used in this study. RAW264.7 cells were grown on […] plastic culture flasks at 37° C., 5% in Dulbecco's modified Eagle's medium (DMEM) supplemented with L-glutamine, penicillin, streptomycin and 10% heat-inactivated fetal bovine serum. They were removed from culture flasks by rubber cell scraper and were centrifuged and resuspended in DMEM without phenol red. They were plated in 96-well microtiter plates (10^5 cells per well) and allowed to adhere over 2 hours. The test samples were added and the cells were preincubated for 1 hour. Thereafter the cells were activated with both of lipopolysaccharide (LPS) (1 μg/ml) and interferon γ (INF γ) (3 u/ml) for 18-24 hours. An equal volume of Griess reagent (1% sulfanilamide/0.1% N-naphthylethylenediamine dihydrochloride/2.5% H3PO4) was added and the cells were incubated at room temperature for 10 minutes. The absorbance was read at 570 nm using microplate reader and NO2^- was measured using NaNO2 as a standard.

Structure (SMILES)	inhibition at 1 µM [%]
O=C(N[C@@H](Cc1ccccn1)C(=O)NCC(=O)N1CCN(c2ccc(Cl)cc2)CC1)c1cc2cc(Cl)ccc2o1 [Compound (a), 5-Chloro-N-[(1S)-2-[[2-[4-(4-chlorophenyl)-1-piperazinyl]-2-oxoethyl]amino]-2-oxo-1-(2-pyridylmethyl)ethyl]-1-benzofuran-2-carboxamide]	100
C[C@H]1CN(c2ccccc2)CCN1C(=O)CNC(=O)[C@H](Cc1ccccn1)NC(=O)/C=C/c1ccc(Cl)cc1 [Compound (b), (2E)-3-(4-Chlorophenyl)-N-[(1S)-2-[[2-((2S)-2-methyl-4-phenyl-1-piperazinyl)-2-oxoethyl]amino]-2-oxo-1-(2-pyridylmethyl)ethyl]-2-propenamide]	100
Cc1ccc(N2C[C@@H](C)N(C(=O)CNC(=O)[C@H](Cc3ccccn3)NC(=O)/C=C/c3ccc(Cl)cc3)[C@@H](C)C2)cc1 [Compound (c), (2E)-3-(4-Chlorophenyl)-N-[(1S)-2-[[2-[(2R,6S)-2,6-dimethyl-4-(4-methylphenyl)-1-piperazinyl]-2-oxoethyl]amino]-2-oxo-1-(2-pyridylmethyl)ethyl]-2-propenamide]	100
O=C(/C=C/c1ccc(Cl)cc1)N[C@@H](Cc1ccccn1)C(=O)NCC(=O)N1CCN(CCC(F)(F)F)CC1 [Compound (d), (2E)-3-(4-Chlorophenyl)-N-[(1S)-2-oxo-2-[[2-oxo-2-[4-(3,3,3-trifluoropropyl)-1-piperazinyl]ethyl]amino]-1-(2-pyridylmethyl)ethyl]-2-propenamide]	100
O=C(/C=C/c1ccc(Cl)cc1)N[C@@H](Cc1ccccn1)C(=O)NCC(=O)N1CCN(c2ccc(C(F)(F)F)cc2)CC1 [Compound (e), (2E)-3-(4-Chlorophenyl)-N-[(1S)-2-oxo-2-[[2-oxo-2-[4-(4-trifluoromethylphenyl)-1-piperazinyl]ethyl]amino]-1-(2-pyridylmethyl)ethyl]-2-propenamide]	99
COc1ccc(N2CCN(C(=O)CNC(=O)[C@H](Cc3ccccn3)NC(=O)c3cc4cc(Cl)ccc4o3)CC2)cc1 [Compound (f), 5-Chloro-N-[(1S)-2-[[2-[4-(4-methoxyphenyl)-1-piperazinyl]-2-oxoethyl]amino]-2-oxo-1-(2-pyridylmethyl)ethyl]-1-benzofuran-2-carboxamide]	100

Tested on: not given
Assay: not given
Settings: not given

Structure (SMILES)	melting point [°C]
O=C(N[C@@H](Cc1ccccn1)C(=O)NCC(=O)N1CCN(c2cccs2)CC1)c1cc2cc(Cl)ccc2o1 [Example 18, 5-Chloro-N-[(1S)-2-oxo-2-[[2-oxo-2-[4-(2-thienyl)-1-piperazinyl]ethyl]amino]-1-(2-pyridylmethyl)ethyl]-1-benzofuran-2-carboxamide]	75 to 85
C[C@H](NC(=O)[C@H](Cc1ccccn1)NC(=O)c1cc2cc(Cl)ccc2o1)C(=O)N1CCN(c2ccc(Cl)cc2)CC1 [Example 22, 5-Chloro-N-[(1S)-2-[[(1S)-2-[4-(4-chlorophenyl)-1-piperazinyl]-1-methyl-2-oxoethyl]amino]-2-oxo-1-(2-pyridyl-methyl)ethyl]-1-benzofuran-2-carboxamide]	152 to 155
C[C@H](NC(=O)[C@H](Cc1ccccn1)NC(=O)/C=C/c1ccc(Cl)cc1)C(=O)N1CCN(c2ccc(Cl)cc2)CC1 [Example 23, (2E)-3-(4-Chlorophenyl)-N-[(1S)-2-[[(1S)-2-[4-(4-chlorophenyl)-1-piperazinyl]-1-methyl-2-oxoethyl]amino]-2-oxo-1-(2-pyridylmethyl)ethyl]-2-propenamide]	179 to 181
COC[C@@H]1CN(c2ccccc2)CCN1C(=O)CNC(=O)[C@H](Cc1ccccn1)NC(=O)c1cc2cc(Cl)ccc2o1 [Example 25, 5-Chloro-N-[(1S)-2-[[2-[(2S)-2-(methoxymethyl)-4-phenyl-1-piperazinyl]-2-oxoethyl]amino]-2-oxo-1-(2-pyridylmethyl)ethyl]-1-benzofuran-2-carboxamide]	95 to 100
O=C(N[C@@H](Cc1ccccn1)C(=O)NCC(=O)N1CCN(c2ccccc2)C[C@H]1CO)c1cc2cc(Cl)ccc2o1 [Example 26, 5-Chloro-N-[(1S)-2-[[2-[(2S)-2-(hydroxymethyl)-4-phenyl-1-piperazinyl]-2-oxoethyl]amino]-2-oxo-1-(2-pyridylmethyl)ethyl]-1-benzofuran-2-carboxamide]	115 to 120
